Patent US20190307843A1, “SINGLE DOSE METHODS FOR PREVENTING AND TREATING FUNGAL INFECTIONS” (Cidara Therapeutics, Inc., priority 2016, published 2019)
Starred links: 1 amine or outer side, 2 acyl side, 3 side chain; linkers in the order of their positions; H or OH if unused. Positions of bridges follow the written chain, without caps; N, C: chain ends. Non-standard residues stand in square brackets, D forms with d. Residues, ends and D or L forms follow the SMILES beside them. *: point of attachment. Orn(4R-OH,5R-OCH2CH2NMe3+) = C[N+](C)(C)CCO[C@@H](N[*:3])[C@H](O)C[C@H](N[*:1])C(=O)[*:2]; pTerphenylCO(4''-OnC5H11) = CCCCCOc1ccc(-c2ccc(-c3ccc(C(=O)*)cc3)cc2)cc1; hTyr(3S-OH,4S-OH) = N[C@H](C(=O)O)[C@H](O)[C@@H](O)c1ccc(O)cc1; Pro(3S-OH,4S-Me) = C[C@H]1CN[C@H](C(=O)O)[C@H]1O; Hyp = O=C(O)[C@@H]1C[C@@H](O)CN1

Assays:
[1] = system: A. fumigatus strain AF293; test: Murine model of pulmonary aspergillosis (Example 13), terminal lung burden; format: in vivo, Aspergillus fumigatus
Method: A secondary endpoint for the study was terminal lung tissue burden. Immediately following confirmation of death, carcasses were frozen at −20° C. prior to tissue dissection and processing. The frozen carcasses were thawed at room temperature and the lungs removed and placed into pre-weighed bead-beating tubes containing 2 mL of PBS and subjected to mechanical disruption. Organ homogenates were diluted further in PBS and quantitatively cultured for A. fumigatus onto SABC and incubated at 30° C. for 24-48 hours. In addition, a 300 μL aliquot of the undiluted lung tissue homogenate was stored at −80° C. for possible optional assessment of burden by qPCR.

A. fumigatus AF293 [2] = test: Pulmonary aspergillosis, prophylaxis, neutropenic ICR mice (Examples 17, 18), survival; format: in vivo, Aspergillus fumigatus
Method: Intranasal infection with A. fumigatus AF293 (10^5 CFU/mouse) on Day 0. Prophylaxis CD101 as a single dose (IP; 5, 10, 20 mg/kg) or posaconazole (PO; 2 and 10 mg/kg) 1 day prior to infection. Survival monitored for 10 days.
Intranasal challenge with A. fumigatus AF293 (10^5 CFU/mouse) was initiated on Day 0 and prophylaxis with CD101 as a single dose (IP; 5, 10, 20 mg/kg) or posaconazole (PO; 2 and 10 mg/kg) was started 1 day prior to infection. Survival was monitored for 10 days.

C. auris = test: Murine model of disseminated candidiasis, C. auris infection, kidney CFU and survival; format: in vivo, Candida auris; settings: CD101 20 mg/kg IP
A. fumigatus AF293 [3] = test: Murine model of pulmonary aspergillosis (Example 19), survival; settings: for survival time post infection, range / Mean Survival / Median Survival: 1 day pre-infection; for mice surviving to the end of the study: 6/treatment group, 10 days
[4] = CD101 20 mg/kg IP once, 20 mg/kg
[5] = CD101 60 mg/kg IP once, 60 mg/kg

SMILES: CCCCCOc1ccc(-c2ccc(-c3ccc(C(=O)N[C@H]4C[C@@H](O)[C@@H](OCC[N+](C)(C)C)NC(=O)[C@@H]5[C@@H](O)[C@@H](C)CN5C(=O)[C@H]([C@@H](C)O)NC(=O)[C@H]([C@H](O)[C@@H](O)c5ccc(O)cc5)NC(=O)[C@@H]5C[C@@H](O)CN5C(=O)[C@H]([C@@H](C)O)NC4=O)cc3)cc2)cc1 [CD101] ({pTerphenylCO(4''-OnC5H11)}-[Orn(4R-OH,5R-OCH2CH2NMe3+)]T[Hyp][hTyr(3S-OH,4S-OH)]T[Pro(3S-OH,4S-Me)]; lactam 1-C)
- Group Geometric mean (lung burden) ([1]; CD101 5 mg/kg IP Day 0): 5.65 × 10^4 CFU/g
- Log10 Group Geometric mean (lung burden) ([1]; CD101 5 mg/kg IP Day 0): 4.75 CFU/g
- Log10 reduction from vehicle control ([1]; CD101 5 mg/kg IP Day 0): −0.98 CFU/g
- Group Geometric mean (lung burden) ([1]; CD101 5 mg/kg IP Day −1): 3.75 × 10^4 CFU/g
- Log10 Group Geometric mean (lung burden) ([1]; CD101 5 mg/kg IP Day −1): 4.57 CFU/g
- Log10 reduction from vehicle control ([1]; CD101 5 mg/kg IP Day −1): −0.80 CFU/g
- Group Geometric mean (lung burden) ([1]; CD101 5 mg/kg IP Day −3): 5.71 × 10^4 CFU/g
- Log10 Group Geometric mean (lung burden) ([1]; CD101 5 mg/kg IP Day −3): 4.76 CFU/g
- Log10 reduction from vehicle control ([1]; CD101 5 mg/kg IP Day −3): −0.98 CFU/g
- Group Geometric mean (lung burden) ([1]; CD101 5 mg/kg IP Day −5): 6.36 × 10^4 CFU/g
- Log10 Group Geometric mean (lung burden) ([1]; CD101 5 mg/kg IP Day −5): 4.80 CFU/g
- Log10 reduction from vehicle control ([1]; CD101 5 mg/kg IP Day −5): −1.03 CFU/g
- Group Geometric mean (lung burden) ([1]; CD101 10 mg/kg IP Day −1): 5.17 × 10^3 CFU/g
- Log10 Group Geometric mean (lung burden) ([1]; CD101 10 mg/kg IP Day −1): 3.71 CFU/g
- Log10 reduction from vehicle control ([1]; CD101 10 mg/kg IP Day −1): 0.06 CFU/g
- Group Geometric mean (lung burden) ([1]; CD101 10 mg/kg IP Day −3): 7.34 × 10^3 CFU/g
- Log10 Group Geometric mean (lung burden) ([1]; CD101 10 mg/kg IP Day −3): 3.87 CFU/g
- Log10 reduction from vehicle control ([1]; CD101 10 mg/kg IP Day −3): −0.09 CFU/g
- Group Geometric mean (lung burden) ([1]; CD101 10 mg/kg IP Day −5): 3.40 × 10^4 CFU/g
- Log10 Group Geometric mean (lung burden) ([1]; CD101 10 mg/kg IP Day −5): 4.53 CFU/g
- Log10 reduction from vehicle control ([1]; CD101 10 mg/kg IP Day −5): −0.76 CFU/g
- Group Geometric mean (lung burden) ([1]; CD101 20 mg/kg IP Day −1): 1.12 × 10^4 CFU/g
- Log10 Group Geometric mean (lung burden) ([1]; CD101 20 mg/kg IP Day −1): 4.05 CFU/g
- Log10 reduction from vehicle control ([1]; CD101 20 mg/kg IP Day −1): −0.28 CFU/g
- Group Geometric mean (lung burden) ([1]; CD101 20 mg/kg IP Day −3): 4.92 × 10^4 CFU/g
- Log10 Group Geometric mean (lung burden) ([1]; CD101 20 mg/kg IP Day −3): 4.69 CFU/g
- Log10 reduction from vehicle control ([1]; CD101 20 mg/kg IP Day −3): −0.92 CFU/g
- Group Geometric mean (lung burden) ([1]; CD101 20 mg/kg IP Day −5): 8.35 × 10^3 CFU/g
- Log10 Group Geometric mean (lung burden) ([1]; CD101 20 mg/kg IP Day −5): 3.92 CFU/g
- Log10 reduction from vehicle control ([1]; CD101 20 mg/kg IP Day −5): −0.15 CFU/g
- survival rate (A. fumigatus AF293 [2]; CD101 20 mg/kg IP single dose 1 day prior to infection, 10 days): 30%
- survival (A. fumigatus AF293 [2]; single CD101 dose (IP; 5, 10, 20 mg/kg) one day prior to infection): dose-dependent increase in survival rate
- percent survival at the end of the study (C. auris; 2 doses, Day 14): 80%
- average reduction in kidney CFU compared to fluconazole, amphotericin B, and vehicle treated groups (C. auris; Day 1 and Day 4, Day 8): 3 log
- survival time post infection, range (A. fumigatus AF293 [3]; CD101 20 mg/kg IP once): 70 to 240 h
- Mean Survival (A. fumigatus AF293 [3]; [4]): 130.4 h
- Median Survival (A. fumigatus AF293 [3]; [4]): 74.7 h
- mice surviving to the end of the study (A. fumigatus AF293 [3]; CD101 20 mg/kg IP): Two mice survived to the end of the study
- survival time post infection, range (A. fumigatus AF293 [3]; CD101 60 mg/kg IP once): 73-240
- Mean Survival (A. fumigatus AF293 [3]; [5]): 122.7 h
- Median Survival (A. fumigatus AF293 [3]; [5]): 88.7 h
- mice surviving to the end of the study (A. fumigatus AF293 [3]; CD101 60 mg/kg IP): A single mouse survived to the end of the study
